As a reminder, the IC50 is the concentration at which inhibition is half-maximal.

The assay concerns the target Cathepsin D (Cat D) (Homo sapiens (Human), UniProt P07339). The assay is described as follows: In vitro enzymatic Cathepsin D (Cat D) FRET assay. Conditions: read-out: CatD IC50. The assay is classed as biochemical. Here is the method:
In Vitro Enzymatic Cathepsin D (Cat D) FRET (Fluorescence Resonance Energy Transfer) Assay
Recombinant Cat D was expressed in CHO cells. The assay buffer for CathepsinD is 0.05 M citrate pH 3.5, 10% DMSO final, 5 mM CHAPS. […] The assays are effectively started by the addition of different FRET substrates (20 nM for Cat D) and the combination is incubated for one hour. The FRET assay is terminated with by addition of Tris buffer, which raises the pH to neutrality, and the fluorescence is determined. The FRET substrate is a peptide with commercially available fluorophore and quencher, on opposite sides of the BACE cleavage site. […] Proteolytic cleavage of the FRET substrate releases quenching of fluorescence (Cat D excitation 500 nm and emission 580 nm).
In addition, the cathepsin D and cathepsin E assays are described in PCT publication WO2011069934.

Where [1] appears, read: average IC50, cathepsin D enzyme assay.

Read-outs that look alike come from different tables or passages of the source.

Sequence of Cathepsin D (Cat D) (P07339 65-412, species assumed): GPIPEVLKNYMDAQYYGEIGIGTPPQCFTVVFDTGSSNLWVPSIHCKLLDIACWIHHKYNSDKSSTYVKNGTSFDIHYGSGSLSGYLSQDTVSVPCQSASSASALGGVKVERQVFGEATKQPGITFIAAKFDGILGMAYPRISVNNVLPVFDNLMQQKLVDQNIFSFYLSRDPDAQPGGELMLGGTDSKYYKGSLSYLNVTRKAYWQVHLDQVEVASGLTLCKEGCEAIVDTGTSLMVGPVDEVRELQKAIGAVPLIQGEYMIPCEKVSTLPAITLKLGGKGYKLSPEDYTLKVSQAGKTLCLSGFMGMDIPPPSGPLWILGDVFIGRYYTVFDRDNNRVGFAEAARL

For the compound `COc1cnc(C(=O)Nc2ccc(F)c([C@]3(CF)C[C@H](C(F)(F)F)OC(N)=N3)c2)cn1` (racemic) [Example 25, N-(3-((4S,6R)-2-amino-4-(fluoromethyl)-6-(trifluoromethyl)-5,6-dihydro-4H-1,3-oxazin-4-yl)-4-fluorophenyl)-5-methoxypyrazine-2-carboxamide], for the setting “average IC50”, the half-maximal inhibitory concentration (IC50) is more than 400 µM. On to `Cc1cc(Cl)cnc1C(=O)Nc1ccc(F)c([C@]2(C)C[C@@H](C(F)(F)F)OC(N)=N2)c1` (racemic) [Example 31, N-(3-((4SR,6SR)-2-amino-4-methyl-6-(trifluoromethyl)-5,6-dihydro-4H-1,3-oxazin-4-yl)-4-fluorophenyl)-5-chloro-3-methyl-2-pyridinecarboxamide], for which, where the note is “average IC50”, the 50% inhibitory concentration (IC50) came to 202 µM. In the case of `N#Cc1cnc2c(Nc3ccc(F)c([C@]4(CF)C[C@@H](C(F)(F)F)OC(N)=N4)c3)ncc(F)c2c1` [Example 10, 8-((3-((4S,6S)-2-amino-4-(fluoromethyl)-6-(trifluoromethyl)-5,6-dihydro-4H-1,3-oxazin-4-yl)-4-fluorophenyl)amino)-5-fluoro-1,7-naphthyridine-3-carbonitrile], the IC50 (average IC50) was more than 44 µM. Consider `NC1=N[C@](CF)(c2cc(Nc3ncnc4cc(Cl)cnc34)ccc2F)C[C@@H](C(F)(F)F)O1` [Example 11, (4S,6S)-4-(5-((7-chloropyrido[3,2-d]pyrimidin-4-yl)amino)-2-fluorophenyl)-4-(fluoromethyl)-6-(trifluoromethyl)-5,6-dihydro-4H-1,3-oxazin-2-amine], for which the IC50 (average IC50) is 54.4 µM. Turning to `COc1cnc2c(Nc3ccc(F)c([C@]4(CF)C[C@@H](C(F)(F)F)OC(N)=N4)c3)nccc2c1` [Example 12, (4S,6S)-4-(2-fluoro-5-((3-methoxy-1,7-naphthyridin-8-yl)amino)phenyl)-4-(fluoromethyl)-6-(trifluoromethyl)-5,6-dihydro-4H-1,3-oxazin-2-amine], under “average IC50”, the half-inhibitory concentration (IC50) is more than 400 µM. The same measure, in the same setting: the figure for `COc1cnc2c(Nc3ccc(F)c([C@]4(CF)C[C@@H](C(F)(F)F)OC(N)=N4)c3)ncnc2c1` [Example 13, (4S,6S)-4-(2-fluoro-5-((7-methoxypyrido[3,2-d]pyrimidin-4-yl)amino)phenyl)-4-(fluoromethyl)-6-(trifluoromethyl)-5,6-dihydro-4H-1,3-oxazin-2-amine] is more than 400 µM.

For the compound `COc1cccnc1Nc1ccc(F)c([C@]2(CF)C[C@@H](C(F)(F)F)OC(N)=N2)c1` [Example 15, (4S,6S)-4-(2-fluoro-5-((3-methoxypyridin-2-yl)-amino)phenyl)-4-(fluoromethyl)-6-(trifluoromethyl)-5,6-dihydro-4H-1,3-oxazin-2-amine], the 50% inhibitory concentration (IC50) under setting [1] was found to be 1080 µM. As for `NC1=N[C@](CF)(c2cc(Nc3ncc(F)c4cc(Cl)cnc34)ccc2F)C[C@@H](C(F)(F)F)O1` [Example 19, (4S,6S)-4-(5-((3-chloro-5-fluoro-1,7-naphthyridin-8-yl)amino)-2-fluorophenyl)-4-(fluoromethyl)-6-(trifluoromethyl)-5,6-dihydro-4H-1,3-oxazin-2-amine], the IC50 under setting [1] is more than 133 µM. For `NC1=N[C@](CF)(c2cc(Nc3ncnc4sc(C(F)F)nc34)ccc2F)C[C@@H](C(F)(F)F)O1` [Example 21, (4S,6S)-4-(5-((2-(difluoromethyl)thiazolo[5,4-d]pyrimidin-7-yl)amino)-2-fluorophenyl)-4-(fluoromethyl)-6-(trifluoromethyl)-5,6-dihydro-4H-1,3-oxazin-2-amine], under setting [1], the IC50 was more than 400 µM. With `COc1cnc(C(=O)Nc2ccc(F)c([C@]3(CF)C[C@@H](C(F)(F)F)OC(N)=N3)c2)c(C)n1` [Example 33, N-(3-((4S,6S)-2-amino-4-(fluoromethyl)-6-(trifluoromethyl)-5,6-dihydro-4H-1,3-oxazin-4-yl)-4-fluorophenyl)-5-methoxy-3-methylpyrazine-2-carboxamide], the IC50 (average IC50) was more than 400 µM. As to `C#CCOc1cnc(C(=O)Nc2ccc(F)c([C@]3(CF)C[C@@H](C(F)(F)F)OC(N)=N3)c2)cn1` [Example 35, N-(3-((4S,6S)-2-amino-4-(fluoromethyl)-6-(trifluoromethyl)-5,6-dihydro-4H-1,3-oxazin-4-yl)-4-fluorophenyl)-5-(prop-2-yn-1-yloxy)pyrazine-2-carboxamide], the half-maximal inhibitory concentration (IC50) under setting [1] is more than 400 µM. Take `NC1=N[C@](CF)(c2cc(NC(=O)c3nn(C(F)F)cc3Cl)ccc2F)C[C@@H](C(F)(F)F)O1` [Example 36, N-(3-((4S,6S)-2-amino-4-(fluoromethyl)-6-(trifluoromethyl)-5,6-dihydro-4H-1,3-oxazin-4-yl)-4-fluorophenyl)-4-chloro-1-(difluoromethyl)-1H-pyrazole-3-carboxamide]: the concentration for half-maximal inhibition (IC50) under setting [1] worked out at 2380 µM. Still for that read-out and setting: the figure for `Cc1nc(OCC(F)(F)F)cnc1C(=O)Nc1ccc(F)c([C@]2(CF)C[C@@H](C(F)(F)F)OC(N)=N2)c1` [Example 38, N-(3-((4S,6S)-2-amino-4-(fluoromethyl)-6-(trifluoromethyl)-5,6-dihydro-4H-1,3-oxazin-4-yl)-4-fluorophenyl)-3-methyl-5-(2,2,2-trifluoroethoxy)pyrazine-2-carboxamide] is more than 400 µM; for `NC1=N[C@](CF)(c2cc(NC(=O)c3ncc(C(F)(F)F)cc3Cl)ccc2F)C[C@@H](C(F)(F)F)O1` [Example 44, N-(3-((4S,6S)-2-amino-4-(fluoromethyl)-6-(trifluoromethyl)-5,6-dihydro-4H-1,3-oxazin-4-yl)-4-fluorophenyl)-3-chloro-5-(trifluoromethyl)picolinamide] it is more than 400 µM. Turning to `C#CCOc1cnc(C(=O)Nc2ccc(F)c([C@]3(C)C[C@@H](C(F)(F)F)OC(N)=N3)c2)cn1` [Example 45, N-(3-((4S,6S)-2-amino-4-methyl-6-(trifluoromethyl)-5,6-dihydro-4H-1,3-oxazin-4-yl)-4-fluorophenyl)-5-(prop-2-yn-1-yloxy)pyrazine-2-carboxamide], the IC50 (average) was 2570 µM.

As to `NC1=N[C@](CF)(c2cc(NC(=O)c3cnc(OCc4ncco4)cn3)ccc2F)C[C@@H](C(F)(F)F)O1` [Example 46, N-(3-((4S,6S)-2-amino-4-(fluoromethyl)-6-(trifluoromethyl)-5,6-dihydro-4H-1,3-oxazin-4-yl)-4-fluorophenyl)-5-(oxazol-2-ylmethoxy)pyrazine-2-carboxamide], the IC50 under setting [1] is more than 400 µM. Take `COc1ccc(C(=O)Nc2ccc(F)c([C@]3(CF)C[C@@H](C(F)(F)F)OC(N)=N3)c2)nc1` [Example 49, N-(3-((4S,6S)-2-amino-4-(fluoromethyl)-6-(trifluoromethyl)-5,6-dihydro-4H-1,3-oxazin-4-yl)-4-fluorophenyl)-5-methoxypicolinamide]: the IC50 (average IC50) was more than 400 µM. Consider `NC1=N[C@](CF)(c2cc(NC(=O)c3ncc(Br)cc3Cl)ccc2F)C[C@@H](C(F)(F)F)O1` [Example 56, N-(3-((4S,6S)-2-amino-4-(fluoromethyl)-6-(trifluoromethyl)-5,6-dihydro-4H-1,3-oxazin-4-yl)-4-fluorophenyl)-5-bromo-3-chloro-2-pyridinecarboxamide], for which the half-inhibitory concentration (IC50) (average IC50) was more than 400 µM. On the same count and under the same terms, the figure for `NC1=N[C@](CF)(c2cc(NC(=O)c3ncc(Cl)cc3Cl)ccc2F)C[C@@H](C(F)(F)F)O1` [Example 58, N-(3-((4S,6S)-2-amino-4-(fluoromethyl)-6-(trifluoromethyl)-5,6-dihydro-4H-1,3-oxazin-4-yl)-4-fluorophenyl)-3,5-dichloropicolinamide] is 2390 µM; for `N#Cc1ccc(C(=O)Nc2ccc(F)c([C@]3(CF)C[C@@H](C(F)(F)F)OC(N)=N3)c2)nc1` [Example 59, N-(3-((4S,6S)-2-amino-4-(fluoromethyl)-6-(trifluoromethyl)-5,6-dihydro-4H-1,3-oxazin-4-yl)-4-fluorophenyl)-5-cyanopicolinamide] it is more than 400 µM.

For the compound `C[C@@]1(c2cc(NC(=O)c3ccc(C#N)cn3)cnc2F)C[C@@H](C(F)(F)F)OC(N)=N1` [Example 62, N-(5-((4S,6S)-2-amino-4-methyl-6-(trifluoromethyl)-5,6-dihydro-4H-1,3-oxazin-4-yl)-6-fluoropyridin-3-yl)-5-cyanopicolinamide], the IC50 (average IC50) was more than 400 µM. With `COc1ccc(C(=O)Nc2cnc(F)c([C@]3(C)C[C@@H](C(F)(F)F)OC(N)=N3)c2)nc1` [Example 63, N-(5-((4S,6S)-2-amino-4-methyl-6-(trifluoromethyl)-5,6-dihydro-4H-1,3-oxazin-4-yl)-6-fluoropyridin-3-yl)-5-methoxypicolinamide], the concentration for half-maximal inhibition (IC50) under setting [1] was more than 400 µM.

Take `COc1cnc(C(=O)Nc2cnc(F)c([C@]3(C)C[C@@H](C(F)(F)F)OC(N)=N3)c2)c(Cl)c1` [Example 69, N-(5-((4S,6S)-2-amino-4-methyl-6-(trifluoromethyl)-5,6-dihydro-4H-1,3-oxazin-4-yl)-6-fluoropyridin-3-yl)-3-chloro-5-methoxypicolinamide]: the IC50 (average IC50) is more than 400 µM. Turning to `COc1cnc(C(=O)Nc2cnc(F)c([C@]3(C)C[C@@H](C(F)(F)F)OC(N)=N3)c2)cn1` [Example 70, N-(5-((4S,6S)-2-amino-4-methyl-6-(trifluoromethyl)-5,6-dihydro-4H-1,3-oxazin-4-yl)-6-fluoropyridin-3-yl)-5-methoxypyrazine-2-carboxamide], under setting [1], the IC50 was 397 µM. Turning to `C#CCOc1cnc(C(=O)Nc2cnc(F)c([C@]3(C)C[C@@H](C(F)(F)F)OC(N)=N3)c2)cn1` [Example 73, N-(5-((4S,6S)-2-amino-4-methyl-6-(trifluoromethyl)-5,6-dihydro-4H-1,3-oxazin-4-yl)-6-fluoropyridin-3-yl)-5-(prop-2-yn-1-yloxy)pyrazine-2-carboxamide], the half-maximal inhibitory concentration (IC50) (average) turned out to be 1690 µM.

The values above are taken from patent US9296734B2 (AMGEN INC., priority 2013, dated 2016).
